Measured values taken from patent US12178210B2, “Insect attractant and killing system” (priority 2020, dated 2024).
Like-named read-outs stand apart in the source and are kept apart here.

Conditions: 40° C., 15 g, UV8 membrane, 1.6 mm orifice
From the text: All prototype lure devices (i.e., the attractant receptacle and permeable membrane with enclosed volatile insect attractant) were constructed using polypropylene/calcium carbonate film (UV8) for the permeable membrane and Scotchpak™ (3M) polyester laminate film for the impermeable barrier material. Each lure device measured approximately 11.5 cm×5.5 cm with a 1.6 mm ( 1/16 in) diameter spherical punch in the impermeable layer exposing the membrane and an ˜8 mm ( 5/16 in) diameter heat seal around the circumference of the punch (referred to as a ring seal). […] Prior to being deployed the lures were weighed on an analytical balance (Sartorius, Universal; resolution of 0.01 g). Prototype lures were attached to a cord that ran the length of ventilated laboratory fume hood, with 5-8 cm (2-3 in) separating each lure in an open, ventilated room at the indicated temperature (18-20° C. or 39-41° C.). Every 2-3 days the lures were removed from the cord and weighed on the same scale. Lure weight was recorded and the weight loss (g/day) was calculated. In addition to prototype lures, two controls were included in the study consisting of a current Suterra lure product (WHF lure) and a competitor product (Comp. Prod. 1).

N.NC(=O)O [CM-NR, Ammonium carbamate]
Attractant Release Rate (5-day average per time point) (day 5): 338.4 mg/day
Attractant Release Rate (5-day average per time point) (day 10): 346.8 mg/day
Attractant Release Rate (5-day average per time point) (day 15): 370.0 mg/day
Attractant Release Rate (5-day average per time point) (day 20): 413.7 mg/day
Attractant Release Rate (5-day average per time point) (day 25): 440.0 mg/day
Attractant Release Rate (5-day average per time point) (day 30): 429.7 mg/day
Attractant Release Rate (5-day average per time point) (day 35): 408.5 mg/day
Attractant Release Rate (5-day average per time point) (day 40): 193.2 mg/day
Attractant Release Rate (5-day average per time point) (day 45): 0.0 mg/day
Attractant Release Rate (5-day average per time point) (day 49): 0.0 mg/day
Attractant Release Rate (5-day average per time point) (day 55): 0.0 mg/day
